Assay results as given in ChEMBL document CHEMBL4420073, “Small molecule inhibitors of MUC1 and methods of identifying the same” (2015).
Activity calls are given as the source filed them. The calls are words filed in the database; no cut-off is given here.

Columns and labels:
Mucin-1 (Homo sapiens) [1] = target: Mucin-1 (Homo sapiens) (UniProt P15941); assay: Inhibition of soluble unbound MUC1-CD dimerization (unknown origin) by immunoblot analysis; conditions: concentration not given here
Mucin-1 (Homo sapiens) [2] = target: Mucin-1 (Homo sapiens) (UniProt P15941); assay: Inhibition of MUC1-CD dimerization (unknown origin) expressed in HEK293 cells assessed as disruption of interaction between Flag-MUC1-CD and GFP-MUC1-CD by coimmunoprecipitation assay; type: cell-based
Mucin-1 (Homo sapiens) [3] = target: Mucin-1 (Homo sapiens) (UniProt P15941); assay: Inhibition of MUC1-CD dimerization in human MCF10A cells assessed as reduction in MUC1-C levels at 50 to 100 uM incubated for 3 days by immunoblot analysis; type: cell-based
MCF-10A [4] = assay: Growth inhibition of immortalized human MCF10A cells assessed as reduction in cell number up to 100 uM incubated for 3 days by MTS assay; type: functional, cell-based
MCF-10A [5] = assay: Induction of apoptosis in immortalized human MCF10A cells assessed as caspase-9 cleavage at 75 uM incubated for 3 days by immunoblot analysis; type: functional, cell-based
MCF-10A [6] = assay: Induction of cell membrane integrity loss in immortalized human MCF10A cells at 75 uM incubated for 3 days by propidium iodide staining based flow cytometry; type: functional
MCF7 [7] = assay: Reduction of MUC1 mRNA levels in human MCF7 cells at 75 uM incubated for 3 days by qRT-PCR analysis; type: functional, cell-based
Mucin-1 (Homo sapiens) [8] = target: Mucin-1 (Homo sapiens) (UniProt P15941); assay: Inhibition of MUC1 nuclear import in human MCF7 cells assessed as decrease in nuclear MUC1-C levels at 75 uM incubated for 3 days by immunoblot analysis; type: cell-based
Mucin-1 (Homo sapiens) [9] = target: Mucin-1 (Homo sapiens) (UniProt P15941); assay: Inhibition of MUC1 in human MCF7 cells assessed as decrease in MUC1 protein level in whole cell lysates at 75 uM incubated for 3 days by immunoblot analysis; type: subcellular; conditions: Lysate
MCF7 [10] = assay: Growth inhibition in human MCF7 cells assessed as reduction in cell number at 75 uM incubated for 3 days in presence of MUC1 siRNA by MTS assay; type: functional, cell-based
MCF7 [11] = assay: Induction of apoptosis in human MCF7 cells assessed as caspase-9 cleavage at 75 uM incubated for 3 days by immunoblot analysis; type: functional, cell-based
MCF7 [12] = assay: Induction of cell membrane integrity loss in human MCF7 cells assessed as PI uptake level at 75 uM incubated for 3 days by propidium iodide staining based flow cytometry (reference value: 22%); type: functional
MCF-10A [13] = assay: Induction of cell membrane integrity loss in immortalized human MCF10A cells assessed as PI uptake level at 50 uM incubated for 3 days by propidium iodide staining based flow cytometry (reference value: 23%); type: functional
MCF-10A [14] = assay: Induction of cell membrane integrity loss in immortalized human MCF10A cells assessed as PI uptake level at 75 uM incubated for 3 days by propidium iodide staining based flow cytometry (reference value: 23%); type: functional
MCF-10A [15] = assay: Induction of cell membrane integrity loss in immortalized human MCF10A cells assessed as PI uptake level at 100 uM incubated for 3 days by propidium iodide staining based flow cytometry (reference value: 23%); type: functional
MCF7 [16] = assay: Inhibition of colony formation in human MCF7 cells assessed as decrease in colonies at 25 uM incubated for 2 weeks by crystal violet staining based assay; type: functional, cell-based
MCF7 [17] = assay: Inhibition of colony formation in human MCF7 cells assessed as decrease in colonies at 50 to 75 uM incubated for 2 weeks by crystal violet staining based assay; type: functional
Mucin-1 (Homo sapiens) [18] = target: Mucin-1 (Homo sapiens) (UniProt P15941); assay: Inhibition of MUC1 in human BT474 cells assessed as reduction in MUC1-C expression at 25 to 75 uM incubated for 3 days by immunoblot analysis; type: cell-based
BT-474 [19] = assay: Growth inhibition of human BT474 cells assessed as reduction in cell number up to 150 uM incubated for 3 days by MTS assay; type: functional, cell-based
HCC1937 = assay: Growth inhibition of human HCC1937 cells assessed as reduction in cell number up to 150 uM incubated for 3 days by MTS assay; type: functional, cell-based
BT-474 [20] = assay: Inhibition of colony formation in human BT474 cells assessed as decrease in colonies at 25 to 75 uM incubated for 2 weeks by crystal violet staining based assay; type: functional, cell-based

Sequence of Mucin-1 (Homo sapiens) (P15941 24-1097 limits assumed): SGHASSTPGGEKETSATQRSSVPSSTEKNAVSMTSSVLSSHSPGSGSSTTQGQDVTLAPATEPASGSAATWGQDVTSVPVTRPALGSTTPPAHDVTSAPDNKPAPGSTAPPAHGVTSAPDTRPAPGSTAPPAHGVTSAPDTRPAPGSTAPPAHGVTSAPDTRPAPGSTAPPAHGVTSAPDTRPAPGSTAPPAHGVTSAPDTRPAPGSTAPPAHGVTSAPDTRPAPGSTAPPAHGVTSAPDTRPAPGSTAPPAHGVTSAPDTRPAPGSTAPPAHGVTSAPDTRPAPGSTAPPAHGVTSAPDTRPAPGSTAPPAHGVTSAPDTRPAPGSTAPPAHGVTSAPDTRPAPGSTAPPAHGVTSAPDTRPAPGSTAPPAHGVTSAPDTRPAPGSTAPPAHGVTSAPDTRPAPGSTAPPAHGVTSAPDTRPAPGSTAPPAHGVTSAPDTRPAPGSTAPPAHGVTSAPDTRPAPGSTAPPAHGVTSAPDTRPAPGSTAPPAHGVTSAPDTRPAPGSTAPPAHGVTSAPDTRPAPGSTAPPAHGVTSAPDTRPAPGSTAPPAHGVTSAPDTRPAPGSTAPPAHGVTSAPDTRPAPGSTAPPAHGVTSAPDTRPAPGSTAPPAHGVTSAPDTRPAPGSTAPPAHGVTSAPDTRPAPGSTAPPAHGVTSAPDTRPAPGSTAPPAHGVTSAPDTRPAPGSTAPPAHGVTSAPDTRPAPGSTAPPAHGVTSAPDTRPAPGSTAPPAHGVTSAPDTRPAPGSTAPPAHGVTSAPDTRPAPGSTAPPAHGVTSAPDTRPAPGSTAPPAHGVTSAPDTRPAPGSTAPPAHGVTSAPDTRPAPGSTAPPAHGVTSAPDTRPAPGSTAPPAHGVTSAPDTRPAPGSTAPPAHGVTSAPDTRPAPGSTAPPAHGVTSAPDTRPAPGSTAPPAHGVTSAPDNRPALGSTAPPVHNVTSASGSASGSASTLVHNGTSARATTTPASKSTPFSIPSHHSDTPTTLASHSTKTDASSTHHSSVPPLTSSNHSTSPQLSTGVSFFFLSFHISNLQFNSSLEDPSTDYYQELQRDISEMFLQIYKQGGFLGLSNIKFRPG
Sequence of Mucin-1 (Homo sapiens) (P15941 1098-1255 limits assumed): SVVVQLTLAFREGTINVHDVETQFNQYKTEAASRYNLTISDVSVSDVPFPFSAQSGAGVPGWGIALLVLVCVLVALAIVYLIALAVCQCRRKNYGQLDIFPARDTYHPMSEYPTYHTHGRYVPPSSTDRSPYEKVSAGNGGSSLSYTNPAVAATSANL

## O=c1cc(-c2ccc(O)cc2)oc2cc(O)cc(O)c12 [APIGENIN]
Mucin-1 (Homo sapiens) [1]
  inhibition: 100%
Mucin-1 (Homo sapiens) [2]
  inhibition: Active
Mucin-1 (Homo sapiens) [3]
  inhibition: Active
MCF-10A [4]
  growth inhibition (GI): Active
MCF-10A [5]
  Activity: Active
MCF-10A [6]
  Activity: Active
MCF7 [7]
  Activity: Active
Mucin-1 (Homo sapiens) [8]
  inhibition: Active
Mucin-1 (Homo sapiens) [9]
  inhibition: Active
MCF7 [10]
  growth inhibition (GI): inactive
MCF7 [11]
  Activity: Active
MCF7 [12]
  Activity: 64%
MCF-10A [13]
  Activity: 81%
MCF-10A [14]
  Activity: 98%
MCF-10A [15]
  Activity: 96%
MCF7 [16]
  inhibition: Active
MCF7 [17]
  inhibition (INH): 100%
Mucin-1 (Homo sapiens) [18]
  inhibition: Active
BT-474 [19]
  growth inhibition (GI): Active
HCC1937
  growth inhibition (GI): inactive
BT-474 [20]
  inhibition: Active
